US20260035382A1, “COMPOUNDS AS SUMO ACTIVATING ENZYME INHIBITORS” (WIGEN BIOMEDICINE TECHNOLOGY (SHANGHAI) CO., LTD., priority 2022, published 2026)

The compounds below were run against SAE (Homo sapiens (Human), UniProt Q9UBT2) (assay: In vitro inhibitory activity assay against SAE (SUMO-2/3 immunofluorescence in HCT116 cells)). Settings: 6 h incubation, class symbols, read-out: SUMO IF IC50.
Sequence of SAE (Q9UBT2 whole entry): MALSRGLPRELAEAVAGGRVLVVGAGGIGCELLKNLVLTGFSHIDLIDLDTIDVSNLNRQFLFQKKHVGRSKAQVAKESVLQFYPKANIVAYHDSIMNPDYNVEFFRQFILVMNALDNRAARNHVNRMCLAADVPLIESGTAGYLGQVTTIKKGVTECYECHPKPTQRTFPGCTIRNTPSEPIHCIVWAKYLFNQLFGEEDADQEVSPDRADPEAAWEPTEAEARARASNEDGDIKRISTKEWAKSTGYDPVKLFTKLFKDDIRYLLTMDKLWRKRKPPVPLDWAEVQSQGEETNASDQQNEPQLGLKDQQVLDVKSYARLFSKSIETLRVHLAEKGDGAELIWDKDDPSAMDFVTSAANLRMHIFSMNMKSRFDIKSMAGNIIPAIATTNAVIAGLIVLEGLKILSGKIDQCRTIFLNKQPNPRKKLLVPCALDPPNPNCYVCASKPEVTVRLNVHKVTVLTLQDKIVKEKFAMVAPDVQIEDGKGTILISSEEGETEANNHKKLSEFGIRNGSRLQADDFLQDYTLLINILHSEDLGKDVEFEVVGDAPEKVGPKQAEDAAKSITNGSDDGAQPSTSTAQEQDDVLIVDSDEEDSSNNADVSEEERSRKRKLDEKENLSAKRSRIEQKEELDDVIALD
Sequence of SAE (Q9UBE0 whole entry partner): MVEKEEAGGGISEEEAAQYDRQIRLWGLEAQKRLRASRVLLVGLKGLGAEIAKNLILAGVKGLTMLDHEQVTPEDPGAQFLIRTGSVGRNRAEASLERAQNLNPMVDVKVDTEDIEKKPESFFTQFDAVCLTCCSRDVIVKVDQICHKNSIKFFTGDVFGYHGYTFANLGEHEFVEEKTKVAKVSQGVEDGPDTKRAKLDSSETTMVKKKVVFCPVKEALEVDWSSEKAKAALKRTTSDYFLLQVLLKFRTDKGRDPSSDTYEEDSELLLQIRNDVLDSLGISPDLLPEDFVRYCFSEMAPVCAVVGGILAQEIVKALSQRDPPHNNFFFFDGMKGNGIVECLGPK
Type: cell-based
Description: HCT116 cells were seeded into a 96-well black transparent bottom plate at about 20000/well with 90 μL per well. The cells were incubated at 37° C. overnight for 24 h. The test compounds were 10-fold diluted to give a final concentration, and 10 μL of the diluted compounds was added to each well of the cell culture plate. The mixture was incubated at 37° C. for 6 h. The cells were then washed gently, the culture medium was discarded, and the cells were washed once with 200 μL of 0.1% o PBST. 50 μL of 4% PFA was added to each well, and the cells were immobilized at room temperature for 20 min, and then washed with PBS 2-3 times. 50 μL of 0.2% o Triton X-100 was added to each well, and the cells were left to stand at room temperature for 15 min and washed with 0.1% PBST 3 times. 100 uL of 3% BSA (0.6 g BSA+20 mL PBS) was added to each well, and the mixture was blocked at 37° C. for 30 min. After the blocking was completed, the liquid was removed and a primary antibody (SUMO-2/3 (181H8) Rabbit mAb, 1:400 dilution) was prepared with […]. 30 μL of the diluted primary antibody was added to each well, and the mixture was incubated at 4° C. overnight. The cells were washed 3 times with 200 μL of 0.1% o PBST. A FITC secondary antibody (Fluorescein (FITC)-conjugated Affinipure Goat Anti-Rabbit IgG (H+L), 1:300 dilution) was further prepared with 1% o BSA, and 40 μL of the diluted secondary antibody was added to each well. The mixture was incubated at room temperature in the dark for 2 h, and then the cells were washed 4 times with 0.1% PBST. The fluorescence signal of the sample was detected and compared to the DMSO group, and the inhibition rate and IC50 were calculated.
`NS(=O)(=O)OC[C@H]1C[C@@H](Nc2ncncc2C(=O)c2cc3c(s2)CCCC32NCCc3ccccc32)C[C@@H]1O` (stereo partly shown) [Compound 1] gave an IC50 of 50 to 200 nM.
In the case of `NS(=O)(=O)OC[C@H]1C[C@@H](Nc2ncncc2C(=O)c2cc3c(s2)CCC[C@@]32NCCc3ccccc32)C[C@@H]1O` [Compound 2], the IC50 is reported as greater than 200 nM.
In the case of `NS(=O)(=O)OC[C@H]1C[C@@H](Nc2ncncc2C(=O)c2cc3c(s2)CCC[C@]32NCCc3ccccc32)C[C@@H]1O` [Compound 3], the IC50 is reported as no more than 50 nM.
`NS(=O)(=O)OC[C@H]1C[C@@H](Nc2ncncc2C(=O)c2cc3c(s2)CCCC32NCCc3ccc(Cl)cc32)C[C@@H]1O` (stereo partly shown) [Compound 4] gave an IC50 of no more than 50 nM.
`NS(=O)(=O)OC[C@H]1C[C@@H](Nc2ncncc2C(=O)c2cc3c(s2)CCCC32NCCc3ccc(F)cc32)C[C@@H]1O` (stereo partly shown) [Compound 7] gave an IC50 of 50 to 200 nM.
`N#Cc1ccc2c(c1)C1(CCCc3sc(C(=O)c4cncnc4N[C@@H]4C[C@H](COS(N)(=O)=O)[C@@H](O)C4)cc31)NCC2` (stereo partly shown) [Compound 10] gave an IC50 of 50 to 200 nM.
For `N#Cc1ccc2c(c1)[C@]1(CCCc3sc(C(=O)c4cncnc4N[C@@H]4C[C@H](COS(N)(=O)=O)[C@@H](O)C4)cc31)NCC2` [Compound 11], the IC50 was greater than 200 nM.
For `N#Cc1ccc2c(c1)[C@@]1(CCCc3sc(C(=O)c4cncnc4N[C@@H]4C[C@H](COS(N)(=O)=O)[C@@H](O)C4)cc31)NCC2` [Compound 12], the IC50 was no more than 50 nM.
Compound `NS(=O)(=O)OC[C@H]1C[C@@H](Nc2ncncc2C(=O)c2cc3c(s2)COCC32NCCc3ccccc32)C[C@@H]1O` (stereo partly shown) [Compound 13] has an IC50 greater than 200 nM.
`NS(=O)(=O)OC[C@H]1C[C@@H](Nc2ncncc2C(=O)c2cc3c(s2)COC[C@@]32NCCc3ccccc32)C[C@@H]1O` [Compound 14] gave an IC50 greater than 200 nM.
In the case of `NS(=O)(=O)OC[C@H]1C[C@@H](Nc2ncncc2C(=O)c2cc3c(s2)COC[C@]32NCCc3ccccc32)C[C@@H]1O` [Compound 15], the IC50 is reported as 50 to 200 nM.
With `NS(=O)(=O)OC[C@H]1C[C@@H](Nc2ncncc2C(=O)c2cc3c(s2)COCC32NCCc3ccc(F)cc32)C[C@@H]1O` (stereo partly shown) [Compound 16] the IC50 was 50 to 200 nM.
`NS(=O)(=O)OC[C@H]1C[C@@H](Nc2ncncc2C(=O)c2cc3c(s2)COCC32NCCc3ccc(Cl)cc32)C[C@@H]1O` (stereo partly shown) [Compound 19] gave an IC50 of 50 to 200 nM.
`Cc1ccc2c(c1)C1(CCCc3sc(C(=O)c4cncnc4N[C@@H]4C[C@H](COS(N)(=O)=O)[C@@H](O)C4)cc31)NCC2` (stereo partly shown) [Compound 22] was tested, and the IC50 was 50 to 200 nM.
With `NS(=O)(=O)OC[C@H]1C[C@@H](Nc2ncncc2C(=O)c2cc3c(s2)CCCC32NCCc3ccc(C4CC4)cc32)C[C@@H]1O` (stereo partly shown) [Compound 23] the IC50 was 50 to 200 nM.
`COc1ccc2c(c1)C1(CCCc3sc(C(=O)c4cncnc4N[C@@H]4C[C@H](COS(N)(=O)=O)[C@@H](O)C4)cc31)NCC2` (stereo partly shown) [Compound 24] gave an IC50 greater than 200 nM.
Compound `NS(=O)(=O)OC[C@H]1C[C@@H](Nc2ncncc2C(=O)c2cc3c(s2)CCCC32NCCc3ccc(C(F)(F)F)cc32)C[C@@H]1O` (stereo partly shown) [Compound 25] has an IC50 of 50 to 200 nM.
`NS(=O)(=O)OC[C@H]1C[C@@H](Nc2ncncc2C(=O)c2cc3c(s2)CCCC32NCCc3cc(F)c(F)cc32)C[C@@H]1O` (stereo partly shown) [Compound 26] gave an IC50 of 50 to 200 nM.
`NS(=O)(=O)OC[C@H]1C[C@@H](Nc2ncncc2C(=O)c2cc3c(s2)CCCC32NCCc3cc(F)c(Cl)cc32)C[C@@H]1O` (stereo partly shown) [Compound 27] gave an IC50 of no more than 50 nM.
With `NS(=O)(=O)OC[C@H]1C[C@@H](Nc2ncncc2C(=O)c2cc3c(s2)CCCC32NCCc3cc(Cl)c(Cl)cc32)C[C@@H]1O` (stereo partly shown) [Compound 28] the IC50 was 50 to 200 nM.
With `Cc1cc2c(cc1Cl)C1(CCCc3sc(C(=O)c4cncnc4N[C@@H]4C[C@H](COS(N)(=O)=O)[C@@H](O)C4)cc31)NCC2` (stereo partly shown) [Compound 29] the IC50 was 50 to 200 nM.
Compound `N#Cc1cc2c(cc1Cl)C1(CCCc3sc(C(=O)c4cncnc4N[C@@H]4C[C@H](COS(N)(=O)=O)[C@@H](O)C4)cc31)NCC2` (stereo partly shown) [Compound 30] has an IC50 of 50 to 200 nM.
`COc1cc2c(cc1Cl)C1(CCCc3sc(C(=O)c4cncnc4N[C@@H]4C[C@H](COS(N)(=O)=O)[C@@H](O)C4)cc31)NCC2` (stereo partly shown) [Compound 31] showed an IC50 of 50 to 200 nM.
`NS(=O)(=O)OC[C@H]1C[C@@H](Nc2ncncc2C(=O)c2cc3c(s2)CCCC32NCCc3cc(F)c(Cl)c(F)c32)C[C@@H]1O` (stereo partly shown) [Compound 32] gave an IC50 of 50 to 200 nM.
Work on `NS(=O)(=O)OC[C@H]1C[C@@H](Nc2ncncc2C(=O)c2cc3c(s2)CCCC32NCCc3cc(Cl)c(F)cc32)C[C@@H]1O` (stereo partly shown) [Compound 33] yielded an IC50 of 50 to 200 nM.
With `NS(=O)(=O)OC[C@H]1C[C@@H](Nc2ncncc2C(=O)c2cc3c(s2)CCCC32NCCc3ccncc32)C[C@@H]1O` (stereo partly shown) [Compound 34] the IC50 was 50 to 200 nM.
`NS(=O)(=O)OC[C@H]1C[C@@H](Nc2ncncc2C(=O)c2cc3c(s2)CCCC32NCCc3cc(Cl)ncc32)C[C@@H]1O` (stereo partly shown) [Compound 35] showed an IC50 of 50 to 200 nM.
For `NS(=O)(=O)OC[C@H]1C[C@@H](Nc2ncncc2C(=O)c2cc3c(s2)C=CCC32NCCc3ccc(Cl)cc32)C[C@@H]1O` (stereo partly shown) [Compound 36], the IC50 was no more than 50 nM.
With `NS(=O)(=O)OC[C@H]1C[C@@H](Nc2ncncc2C(=O)c2cc3c(s2)CC=CC32NCCc3ccc(Cl)cc32)C[C@@H]1O` (stereo partly shown) [Compound 37] the IC50 was no more than 50 nM.
`NS(=O)(=O)OC[C@H]1C[C@@H](Nc2ncncc2C(=O)c2cc3c(s2)OCCC32NCCc3ccc(Cl)cc32)C[C@@H]1O` (stereo partly shown) [Compound 38] was tested, and the IC50 was 50 to 200 nM.
Work on `NS(=O)(=O)OC[C@H]1C[C@@H](Nc2ncncc2C(=O)c2cc3c(s2)CCCC32NCC3(CC3)c3ccc(Cl)cc32)C[C@@H]1O` (stereo partly shown) [Compound 39] yielded an IC50 of 50 to 200 nM.
`NS(=O)(=O)OC[C@H]1C[C@@H](Nc2ncncc2C(=O)c2cc3c(s2)CCCC32NC3(CC3)Cc3ccc(Cl)cc32)C[C@@H]1O` (stereo partly shown) [Compound 40] showed an IC50 of 50 to 200 nM.
`NS(=O)(=O)OC[C@H]1C[C@@H](Nc2ncncc2C(=O)c2cc3c(s2)CCCC32NCC(=O)c3ccc(Cl)cc32)C[C@@H]1O` (stereo partly shown) [Compound 41] was tested, and the IC50 was 50 to 200 nM.
`NS(=O)(=O)OC[C@H]1C[C@@H](Nc2ncncc2C(=O)c2cc3c(s2)CCCC32OCCc3ccc(Cl)cc32)C[C@@H]1O` (stereo partly shown) [Compound 42] was tested, and the IC50 was no more than 50 nM.
Work on `NS(=O)(=O)OC[C@H]1C[C@@H](Nc2ncncc2C(=O)c2cc3c(s2)CCC32NCCc3ccccc32)C[C@@H]1O` (stereo partly shown) [Compound 43] yielded an IC50 greater than 200 nM.
`NS(=O)(=O)OC[C@H]1C[C@@H](Nc2ncncc2C(=O)c2cc3c(s2)CCC32NCCc3ccc(Cl)cc32)C[C@@H]1O` (stereo partly shown) [Compound 46] gave an IC50 of 50 to 200 nM.
Work on `NS(=O)(=O)OC[C@H]1C[C@@H](Nc2ncncc2C(=O)c2cc3c(s2)CCC32NCCc3ccc(F)cc32)C[C@@H]1O` (stereo partly shown) [Compound 49] yielded an IC50 of 50 to 200 nM.
`N#Cc1ccc2c(c1)C1(CCc3sc(C(=O)c4cncnc4N[C@@H]4C[C@H](COS(N)(=O)=O)[C@@H](O)C4)cc31)NCC2` (stereo partly shown) [Compound 52] gave an IC50 of 50 to 200 nM.
Work on `N#Cc1ccc2c(c1)[C@]1(CCc3sc(C(=O)c4cncnc4N[C@@H]4C[C@H](COS(N)(=O)=O)[C@@H](O)C4)cc31)NCC2` [Compound 53] yielded an IC50 greater than 200 nM.
`N#Cc1ccc2c(c1)[C@@]1(CCc3sc(C(=O)c4cncnc4N[C@@H]4C[C@H](COS(N)(=O)=O)[C@@H](O)C4)cc31)NCC2` [Compound 54] gave an IC50 of 50 to 200 nM.
`NS(=O)(=O)OC[C@H]1C[C@@H](Nc2ncncc2C(=O)c2cc3c(s2)OCC32NCCc3ccccc32)C[C@@H]1O` (stereo partly shown) [Compound 55] showed an IC50 greater than 200 nM.
In the case of `NS(=O)(=O)OC[C@H]1C[C@@H](Nc2ncncc2C(=O)c2cc3c(s2)OC[C@@]32NCCc3ccccc32)C[C@@H]1O` [Compound 56], the IC50 is reported as greater than 200 nM.

Same assay, conditions: 6 h incubation, numeric values, read-out: SUMO IF IC50
Compound `NS(=O)(=O)OC[C@H]1C[C@@H](Nc2ncncc2C(=O)c2cc3c(s2)CCC[C@@]32NCCc3ccc(Cl)cc32)C[C@@H]1O` [Compound 5] has an IC50 greater than 1000 nM.
In the case of `NS(=O)(=O)OC[C@H]1C[C@@H](Nc2ncncc2C(=O)c2cc3c(s2)CCC[C@@]32NCCc3ccc(F)cc32)C[C@@H]1O` [Compound 8], the IC50 is reported as greater than 1000 nM.
`NS(=O)(=O)OC[C@H]1C[C@@H](Nc2ncncc2C(=O)c2cc3c(s2)COC[C@@]32NCCc3ccc(F)cc32)C[C@@H]1O` [Compound 17] showed an IC50 greater than 1000 nM.
`NS(=O)(=O)OC[C@H]1C[C@@H](Nc2ncncc2C(=O)c2cc3c(s2)COC[C@]32NCCc3ccc(F)cc32)C[C@@H]1O` [Compound 18] was tested, and the IC50 was 104 nM.
`NS(=O)(=O)OC[C@H]1C[C@@H](Nc2ncncc2C(=O)c2cc3c(s2)COC[C@@]32NCCc3ccc(Cl)cc32)C[C@@H]1O` [Compound 20] gave an IC50 greater than 1000 nM.
Work on `NS(=O)(=O)OC[C@H]1C[C@@H](Nc2ncncc2C(=O)c2cc3c(s2)CC[C@@]32NCCc3ccccc32)C[C@@H]1O` [Compound 44] yielded an IC50 greater than 1000 nM.
In the case of `NS(=O)(=O)OC[C@H]1C[C@@H](Nc2ncncc2C(=O)c2cc3c(s2)CC[C@]32NCCc3ccccc32)C[C@@H]1O` [Compound 45], the IC50 is reported as 125 nM.
`NS(=O)(=O)OC[C@H]1C[C@@H](Nc2ncncc2C(=O)c2cc3c(s2)CC[C@@]32NCCc3ccc(Cl)cc32)C[C@@H]1O` [Compound 47] gave an IC50 greater than 1000 nM.
`NS(=O)(=O)OC[C@H]1C[C@@H](Nc2ncncc2C(=O)c2cc3c(s2)CC[C@@]32NCCc3ccc(F)cc32)C[C@@H]1O` [Compound 50] was tested, and the IC50 was greater than 1000 nM.
For `NS(=O)(=O)OC[C@H]1C[C@@H](Nc2ncncc2C(=O)c2cc3c(s2)CC[C@]32NCCc3ccc(F)cc32)C[C@@H]1O` [Compound 51], the IC50 was 50.7 nM.
